# Measurements reported in ChEMBL document CHEMBL1201862, “PubChem BioAssay data set” (2004).
#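 Results reflect a 48-hour exposure of cells in 96-well plates to compound at five concentrations. Abbreviation: GI50, concentration required for 50% inhibition of growth.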 The source made the active and inactive calls. Rule as the data show it: active = GI50 up to about 1.1 µM and inactive = higher.
# Columns and labels:
# Test in all cases: inhibition of tumour cell growth, NCI panel, 48 h
# HCT-15 = system: HCT-15
# SK-MEL-28 = system: SK-MEL-28
# NCI-H460 = system: NCI-H460
# T47D = system: T47D
# HT-29 = system: HT-29
# SF-539 = system: SF-539
# HOP-92 = system: HOP-92
# M14 = system: M14
# OVCAR-4 = system: OVCAR-4
# SK-OV-3 = system: SK-OV-3
# A498 = system: A498
# TK-10 = system: TK-10
# OVCAR-8 = system: OVCAR-8
# LOX IMVI = system: LOX IMVI
# COLO 205 = system: COLO 205
# UO-31 = system: UO-31
# Malme-3M = system: Malme-3M
# HL-60 = system: HL-60
# SK-MEL-2 = system: SK-MEL-2
# HCC 2998 = system: HCC 2998
SMILES,GI50 (HCT-15),GI50 (SK-MEL-28),GI50 (NCI-H460),GI50 (T47D),GI50 (HT-29),GI50 (SF-539),GI50 (HOP-92),GI50 (M14),GI50 (OVCAR-4),GI50 (SK-OV-3),GI50 (A498),GI50 (TK-10),GI50 (OVCAR-8),GI50 (LOX IMVI),GI50 (COLO 205),GI50 (UO-31),GI50 (Malme-3M),GI50 (HL-60),GI50 (SK-MEL-2),GI50 (HCC 2998)
CN1c2ccccc2C2=C(c3ccccc3)CC[C@@H](C(=O)N3C4CC5CC[C@@]4(CS3(=O)=O)C5(C)C)[C@@H]21 (some centres not stated),> 100 µM,> 100 µM (inactive),> 100 µM (inactive),> 100 µM (inactive),> 100 µM (inactive),> 100 µM (inactive),> 100 µM (inactive),> 100 µM (inactive),> 100 µM (inactive),> 100 µM (inactive),> 100 µM (inactive),> 100 µM (inactive),> 100 µM (inactive),> 100 µM (inactive),> 100 µM (inactive),> 100 µM (inactive),> 100 µM (inactive),–,–,–
NC(=S)NC/C=C/Cl,> 100 µM,–,> 100 µM (inactive),> 100 µM (inactive),> 100 µM (inactive),–,> 100 µM (inactive),> 100 µM (inactive),> 100 µM (inactive),> 100 µM (inactive),–,> 100 µM (inactive),> 100 µM (inactive),> 100 µM (inactive),> 100 µM (inactive),> 100 µM (inactive),> 100 µM (inactive),> 100 µM (inactive),> 100 µM (inactive),–
COc1c(F)c(F)c(C(=O)/C=C2\Nc3ccccc3NC2=O)c(F)c1F,> 10 µM,6.81 µM (inactive),–,4.67 µM (inactive),6.98 µM (inactive),–,> 10 µM (inactive),> 10 µM (inactive),2.48 µM (inactive),4.57 µM (inactive),–,> 10 µM (inactive),3.79 µM (inactive),2.89 µM (inactive),> 10 µM (inactive),–,> 10 µM (inactive),> 10 µM (inactive),–,> 10 µM (inactive)
O=C(OCc1ccccc1)C1(N2CN(C3(C(=O)OCc4ccccc4)CCCC3)CN(C3(C(=O)OCc4ccccc4)CCCC3)C2)CCCC1,> 10 µM,> 10 µM (inactive),> 10 µM (inactive),> 10 µM (inactive),> 10 µM (inactive),> 10 µM (inactive),> 10 µM (inactive),> 10 µM (inactive),> 10 µM (inactive),> 10 µM (inactive),–,> 10 µM (inactive),> 10 µM (inactive),> 10 µM (inactive),> 10 µM (inactive),> 10 µM (inactive),> 10 µM (inactive),> 10 µM (inactive),> 10 µM (inactive),> 10 µM (inactive)
NS(=O)(=O)c1nnc(NS(=O)(=O)c2cccc3cccnc23)s1,> 100 µM,> 100 µM (inactive),> 100 µM (inactive),> 100 µM (inactive),–,> 100 µM (inactive),> 100 µM (inactive),> 100 µM (inactive),> 100 µM (inactive),> 100 µM (inactive),> 100 µM (inactive),> 100 µM (inactive),> 100 µM (inactive),> 100 µM (inactive),> 100 µM (inactive),> 100 µM (inactive),–,–,> 100 µM (inactive),> 100 µM (inactive)
CN(C)CCNc1ccc([N+](=O)[O-])c2sc3ccccc3c(=O)c12,3.67 µM,7.08 µM (inactive),1.65 µM (inactive),13.7 µM (inactive),2.57 µM (inactive),3.65 µM (inactive),3.84 µM (inactive),6.71 µM (inactive),3.1 µM (inactive),7.71 µM (inactive),–,12.3 µM (inactive),3.63 µM (inactive),–,2.86 µM (inactive),4.34 µM (inactive),4.27 µM (inactive),2.66 µM (inactive),14.1 µM (inactive),2.92 µM (inactive)
